The term inhibition denotes how much of the control response was suppressed.

These results are taken from patent publication US20260226493A1, “HERBICIDE RESISTANT PLANTS” (SYNGENTA CROP PROTECTION AG, priority 2023, published 2026).

For assay [1], the system named is Nannochloropsis gaditana BioDA. The assay can be described thus: BioDA enzyme activity with DMSO or herbicide in vitro. It counts as biochemical. From the text:
(§1) A pet-24 plasmid containing a DNA sequence encoding each identified variant mutant of BIO3-BIO1 derived from Arabidopsis thaliana from example 5 above, as shown in Table 13 below and as shown in full in SEQ ID NOs: 15 to 155, codon-optimised for expression in E. coli, with an N-terminal 6×His-tag and thrombin cleavage site and under control of a T7 promoter, and was synthesised by Twist Bioscience, in a similar manner to SEQ ID NO:311. These plasmids were then expressed in E. coli BL21 (DE3) bioA with 50 μg/mL kanamycin and 25 μg/mL chloramphenicol selection. Overnight cultures grown at 37° C. were used to inoculate 8×500 mL AIM in shake flasks at a ratio of 1:100. Cultures were grown at 37° C., 200 rpm for 3.5 hours and then overnight at 20° C. Cells were harvested by centrifugation for 30 minutes at 10 000 g. Cells were stored at −80° C. until extraction. 30 g of cell pellet from was thawed in 120 mL of IMAC buffer A (20 mM HEPES pH7.5, 25 mM imidazole, 500 mM sodium chloride, 0.15 mM pyridoxal phosphate, 0.5 mM TCEP, 1× complete Protease Inhibitor Tablet (Roche)). The resuspension was passed through a cell disrupter at 18 000 PSI and centrifuged at 50 000 g for 25 minutes at 4° C. The His-tagged BIO3-BIO1 protein was purified from the extract supernatant on an AKTA avant chromatography system (Cytiva) using a HisTrap FF column and eluted in IMAC buffer B ((20 mM HEPES pH7.5, 500 mM imidazole, 500 mM sodium chloride, 0.15 mM pyridoxal phosphate, 0.5 mM TCEP) followed by SEC using a HiLoad 26/60 Superdex200 column in SEC buffer (25 mM HEPES pH7.5, 150 mM sodium chloride, 0.15 mM pyridoxal phosphate, 0.5 mM TCEP). Protein concentration was measured and calculated using the absorbance at 280 nm. Extracts were diluted 1 in 4 and 10 uL was analysed by SDS PAGE.
(§2) To measure BIO3-BIO1 mutant enzyme activity in the presence of herbicide, herbicides were incubated with 20 μL of enzyme mix (100 mM EPPS pH 8.6, 0.1 mM pyridoxal phosphate, 0.1 mg/mL BSA, 50 nM BIO3-BIO1 enzyme) for 10 minutes at 20° C. in a well of a 96-well half-area black plate, followed by the addition of 20 μL of substrate mix (final concentration of 100 mM EPPS pH 8.6, 0.1 mM pyridoxal phosphate, 0.1 mg/mL BSA, 100 μM spermidine, 20 μM KAPA, 100 mM NaCO3) and further incubation for 75 minutes at 20° C. The reaction was terminated by the addition of 50 μL of derivatisation mix (final concentration of 250 mM borate NaOH pH 9.4, 3.6 mM o-phthalaldehyde, 7 mM β-mercaptoethanol, 17% (v/v) ethanol, 3.6% (v/v) methanol). The fluorescent product produced by the reaction of DAPA with o-phthalaldehyde and 7 mM β-mercaptoethanol was measured at 470 nm after excitation at 410 nm. The percentage inhibition was calculated as the activity in the presence of one of three concentrations of each herbicide compound A to M (note that the compounds labelled as A to M are identified hereinabove in the relevant section of the description) as a percentage of the activity in DMSO (Table 12 and 13). The percentage activity versus WT was also calculated and is shown in Table 13 and 14 (NT indicates mutation not tested in table 13, note that these mutations are tested at different compound concentrations for compounds L, M and C, and the results are shown in table 14).
(§3) The activity of various wild-type BioDA and variant enzymes was also tested when treated with DMSO or herbicide in vitro.
(§4) Protein of Schizosaccharomyces japonicus BioDA (SEQ ID NO:13), Nannochloropsis gaditana BioDA (SEQ ID NO:3), Selaginella moellendorffii BioDA (SEQ ID NO:319), Quercus robur BioDA (SEQ ID NOA11), Ostreococcus tauri BioDA (SEQ ID NO:9), and the variants of Ostreococcus tauri BioDA A374D, F332A and P407A (SEQ ID Nos:321-323) was prepared using the method in Example 6. BioDA enzyme activity in the presence of herbicide or DMSO in vitro for each of the proteins was assayed according to the enzyme assay method above. The results are shown in Table 26 provided below in the “TABLES” section.

The test system of the next assay is Quercus robur BioDA. Described as above. In kind it is biochemical. To be noted: Quercus robur BioDAΔMTP.
From the text: as §1, §2, §3, §4

In another assay the test system is Ostreococcus tauri BioDA. Described as above. In kind it is biochemical. To be noted: Ostreococcus tauri BioDAΔMTP.
From the text: as §1, §2, §3, §4

In assay [2] the test system is Selaginella moellendorffii BioDA. Described as above. It counts as biochemical. To be noted: Selaginella moellendorcffii BioDAΔMTP.
From the text: as §1, §2, §3, §4

Assay [3] relates to Schizosaccharomyces japonicus BioDA. The assay is described as above. In kind it is biochemical.
From the text: as §1, §2, §3, §4

The subject of assay [4] is Pedobacter hartonius BioA. Nature of the assay: BioA enzyme activity with DMSO or herbicide in vitro. It counts as biochemical. The settings on record: spermidine in substrate mix.
From the text: as §1, §2
(§5) Protein of Escherichia coli BioA (SEQ ID NO:159), Pantoea ananatis BioA (SEQ ID NO:167), Streptomyces viridochromogenes BioA (SEQ ID NO:170), Cryptosporidium andersoni BioA (SEQ ID NO:160), Stenotrophomonas maltophilia BioA (SEQ ID NO:171), Chroococcidiopsis BioA (SEQ ID NO:184), Pedobacter hartonius BioA (SEQ ID NO:181), Chitinophaga filiformis BioA (SEQ ID NO:180), Tenacibaculum adriaticum BioA (SEQ ID NO:185) and Bacillus subtilis BioA (SEQ ID NO:166) was prepared using the method in Example 6. BioA enzyme activity in the presence of herbicide or DMSO in vitro for each of the proteins was assayed according to the enzyme assay method in Example 6, except in some reactions spermidine was replaced with 2 mM S-Adenosyl methionine.

The next assay relates to Bacillus subtilis BioA. The assay is described as above. In kind it is biochemical. The settings on record: spermidine in substrate mix.
From the text: as §1, §2, §5

In a further assay the target is T1, Escherichia coli BioA (Escherichia coli, UniProt P12995).
T1 construct: 6xHis-tag (N); thrombin cleavage site (N); made in house; host or cells: E. coli BL21 (DE3) bioA
Described as above. To be noted: SAM in substrate mix, read-out: % Inhibition relative to DMSO treatment. In kind it is biochemical.
From the text: as §1, §2, §5

For assay [5], the system named is Tenacibaculum adriaticum BioA. Described as above. The settings on record: spermidine in substrate mix. It counts as biochemical.
From the text: as §1, §2, §5

The subject of a further assay is Chroococcidiopsis BioA. The description is as above. It counts as biochemical, Chroococcidiopsis sp. CCMEE 29. The settings on record: spermidine in substrate mix.
From the text: as §1, §2, §5

The structures appear in SMILES notation.

T1 sequence (P12995 whole entry): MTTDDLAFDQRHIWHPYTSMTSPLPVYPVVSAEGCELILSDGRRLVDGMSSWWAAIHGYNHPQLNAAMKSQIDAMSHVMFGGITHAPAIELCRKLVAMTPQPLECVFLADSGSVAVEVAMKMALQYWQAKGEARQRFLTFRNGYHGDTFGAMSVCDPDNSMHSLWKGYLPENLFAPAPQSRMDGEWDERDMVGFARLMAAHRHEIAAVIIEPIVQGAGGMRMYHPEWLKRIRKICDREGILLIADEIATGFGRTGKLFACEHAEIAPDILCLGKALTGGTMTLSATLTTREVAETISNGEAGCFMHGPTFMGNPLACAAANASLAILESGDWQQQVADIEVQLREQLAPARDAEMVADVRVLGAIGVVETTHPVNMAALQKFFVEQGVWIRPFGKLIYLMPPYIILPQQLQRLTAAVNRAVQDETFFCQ

On to `CCn1c(C)c(-c2cc(OC(F)(F)F)ccc2Cl)c(=O)c(C(=O)O)c1-c1ccc(Cl)c(Cl)c1` [Compound D, 5-[2-chloro-5-(trifluoromethoxy)phenyl]-2-(3,4-dichlorophenyl)-1-ethyl-6-methyl-4-oxo-pyridine-3-carboxylic acid], for which the “% Inhibition relative to DMSO treatment” value is recorded as 14% in assay [1] (0.5 μM); 88% with Quercus robur BioDA (0.5 μM); 0% in the assay with Ostreococcus tauri BioDA (0.5 μM); 36% with Ostreococcus tauri BioDA (5 μM); 75% in [2] (0.5 μM); 87% in assay [3] (0.5 μM). Besides, the “% Inhibition relative to DMSO treatment” value was determined as 7% in [4] (0.5 μM), 0% with Bacillus subtilis BioA (0.5 μM), 5% in [5] (0.5 μM) and 0% in the assay on Chroococcidiopsis BioA (0.5 μM). Also, the inhibition at 0.5 µM at Escherichia coli BioA came to 6%.
With `C[C@@H](N)COc1cccc(C(=O)O)n1.Cl.Cl` [Compound E, [(1R)-2-(6-carboxypyridin-1-ium-2-yl)oxy-1-methyl-ethyl]ammonium dichloride], the “% Inhibition relative to DMSO treatment” value was found to be 66% in assay [1] (200 μM); 96% in the assay on Quercus robur BioDA (200 μM); 53% with Ostreococcus tauri BioDA (200 μM); 69% in assay [2] (200 μM); 28% in assay [3] (200 μM); 80% in assay [4] (200 μM). The figures for the “% Inhibition relative to DMSO treatment” value (in the assay on Bacillus subtilis BioA (200 μM); in assay [5] (200 μM); with Chroococcidiopsis BioA (200 μM)) were 0%, 16% and 26%, respectively. Further, the inhibition at 200 µM at Escherichia coli BioA (200 μM) amounted to 12%.
Regarding `CCOC(=O)c1nn(-c2ccc3c(c2)OC(F)(F)C(F)(F)O3)c2cccc(C(C)=O)c2c1=O` [Compound A, ethyl 5-acetyl-4-oxo-1-(2,2,3,3-tetrafluoro-1,4-benzodioxin-6-yl)cinnoline-3-carboxylate], the “% Inhibition relative to DMSO treatment” value in [1] (25 μM) stood at 5%; in the assay with Quercus robur BioDA (25 μM) it was 72%; in the assay with Ostreococcus tauri BioDA (25 μM), 0%; in assay [2] (25 μM), 25%; in [3] (25 μM), 2%; in [4] (25 μM), 6%. Besides, the figures for the “% Inhibition relative to DMSO treatment” value (with Bacillus subtilis BioA (25 μM); in assay [5] (25 μM); in the assay with Chroococcidiopsis BioA (25 μM)) were 0%, 14% and 0%, respectively. At Escherichia coli BioA (25 μM), the inhibition at 25 µM was found to be 6%.
For `CCn1c(-c2ccc(Cl)c(Cl)c2)c(C(=O)O)c(=O)c2cc(F)ccc21` [Compound M, 2-(3,4-dichlorophenyl)-1-ethyl-6-fluoro-4-oxo-quinoline-3-carboxylic acid], the “% Inhibition relative to DMSO treatment” value in assay [1] (0.5 μM) is recorded as 3%; with Quercus robur BioDA (0.5 μM), 22%; with Ostreococcus tauri BioDA (0.5 μM), 0%; in the assay with Ostreococcus tauri BioDA (31 μM), 45%; in the assay with Ostreococcus tauri BioDA (500 μM), 92%; in assay [2] (0.5 μM), 0%. Further, the “% Inhibition relative to DMSO treatment” value in assay [3] (0.5 μM) was 15%; in assay [3] (31 μM), 95%; in assay [3] (500 μM) it was 99%; in assay [4] (0.5 μM), 0%; with Bacillus subtilis BioA (0.5 μM), 4%; in assay [5] (0.5 μM), 13%. The “% Inhibition relative to DMSO treatment” value in the assay with Chroococcidiopsis BioA (0.5 μM) was determined as 10%. Besides, the inhibition at 0.5 µM on Escherichia coli BioA is 0%.
